Test results: the NIST ThermoML archive (doi:10.1016/j.jct.2015.04.034)
± gives the expanded uncertainty stated by the source.

What was measured:
[1] = 298.15 K; 101.33 kPa; Liquid; Vibrating tube method
[2] = excess molar enthalpy (molar enthalpy of mixing); xn = mol fraction of the nth substance listed; settings: 101 kPa, Liquid, Flow calorimetry

CC1(C)C(=O)[C@]2(C)CC[C@H]1C2 [(-)-fenchone]
mass density [1]: 940.67 ± 0.14 kg/m3

CC1(C)C(=O)[C@]2(C)CC[C@H]1C2 [(-)-fenchone] + CC(C)O
excess molar enthalpy ([2]; 283.15 K, x1 = 0.049): 0.259 ± 0.01 kJ/mol
excess molar enthalpy ([2]; 283.15 K, x1 = 0.097): 0.49 ± 0.016 kJ/mol
excess molar enthalpy ([2]; 283.15 K, x1 = 0.192): 0.853 ± 0.027 kJ/mol
excess molar enthalpy ([2]; 283.15 K, x1 = 0.292): 1.09 ± 0.034 kJ/mol
excess molar enthalpy ([2]; 283.15 K, x1 = 0.392): 1.22 ± 0.038 kJ/mol
excess molar enthalpy ([2]; 283.15 K, x1 = 0.499): 1.26 ± 0.039 kJ/mol
excess molar enthalpy ([2]; 283.15 K, x1 = 0.598): 1.23 ± 0.038 kJ/mol
excess molar enthalpy ([2]; 283.15 K, x1 = 0.697): 1.1 ± 0.034 kJ/mol
excess molar enthalpy ([2]; 283.15 K, x1 = 0.792): 0.888 ± 0.028 kJ/mol
excess molar enthalpy ([2]; 283.15 K, x1 = 0.899): 0.485 ± 0.016 kJ/mol
excess molar enthalpy ([2]; 283.15 K, x1 = 0.947): 0.276 ± 0.01 kJ/mol
excess molar enthalpy ([2]; 298.15 K, x1 = 0.049): 0.285 ± 0.01 kJ/mol
excess molar enthalpy ([2]; 298.15 K, x1 = 0.097): 0.542 ± 0.017 kJ/mol
excess molar enthalpy ([2]; 298.15 K, x1 = 0.192): 0.93 ± 0.029 kJ/mol
excess molar enthalpy ([2]; 298.15 K, x1 = 0.292): 1.2 ± 0.037 kJ/mol
excess molar enthalpy ([2]; 298.15 K, x1 = 0.392): 1.36 ± 0.042 kJ/mol
excess molar enthalpy ([2]; 298.15 K, x1 = 0.499): 1.41 ± 0.044 kJ/mol
excess molar enthalpy ([2]; 298.15 K, x1 = 0.598): 1.37 ± 0.043 kJ/mol
excess molar enthalpy ([2]; 298.15 K, x1 = 0.697): 1.23 ± 0.038 kJ/mol
excess molar enthalpy ([2]; 298.15 K, x1 = 0.792): 0.98 ± 0.031 kJ/mol
excess molar enthalpy ([2]; 298.15 K, x1 = 0.899): 0.546 ± 0.018 kJ/mol
excess molar enthalpy ([2]; 298.15 K, x1 = 0.947): 0.311 ± 0.011 kJ/mol
excess molar enthalpy ([2]; 313.15 K, x1 = 0.049): 0.304 ± 0.011 kJ/mol
excess molar enthalpy ([2]; 313.15 K, x1 = 0.097): 0.578 ± 0.019 kJ/mol
excess molar enthalpy ([2]; 313.15 K, x1 = 0.192): 0.984 ± 0.031 kJ/mol
excess molar enthalpy ([2]; 313.15 K, x1 = 0.292): 1.28 ± 0.04 kJ/mol
excess molar enthalpy ([2]; 313.15 K, x1 = 0.392): 1.46 ± 0.045 kJ/mol
excess molar enthalpy ([2]; 313.15 K, x1 = 0.499): 1.52 ± 0.047 kJ/mol
excess molar enthalpy ([2]; 313.15 K, x1 = 0.598): 1.48 ± 0.046 kJ/mol
excess molar enthalpy ([2]; 313.15 K, x1 = 0.697): 1.32 ± 0.041 kJ/mol
excess molar enthalpy ([2]; 313.15 K, x1 = 0.792): 1.05 ± 0.033 kJ/mol
excess molar enthalpy ([2]; 313.15 K, x1 = 0.899): 0.588 ± 0.019 kJ/mol
excess molar enthalpy ([2]; 313.15 K, x1 = 0.947): 0.333 ± 0.012 kJ/mol
excess molar enthalpy ([2]; 328.15 K, x1 = 0.049): 0.309 ± 0.011 kJ/mol
excess molar enthalpy ([2]; 328.15 K, x1 = 0.097): 0.586 ± 0.019 kJ/mol
excess molar enthalpy ([2]; 328.15 K, x1 = 0.192): 1.01 ± 0.031 kJ/mol
excess molar enthalpy ([2]; 328.15 K, x1 = 0.292): 1.32 ± 0.041 kJ/mol
excess molar enthalpy ([2]; 328.15 K, x1 = 0.392): 1.51 ± 0.047 kJ/mol
excess molar enthalpy ([2]; 328.15 K, x1 = 0.499): 1.58 ± 0.049 kJ/mol
excess molar enthalpy ([2]; 328.15 K, x1 = 0.598): 1.54 ± 0.048 kJ/mol
excess molar enthalpy ([2]; 328.15 K, x1 = 0.697): 1.36 ± 0.042 kJ/mol
excess molar enthalpy ([2]; 328.15 K, x1 = 0.792): 1.08 ± 0.034 kJ/mol
excess molar enthalpy ([2]; 328.15 K, x1 = 0.899): 0.601 ± 0.019 kJ/mol
excess molar enthalpy ([2]; 328.15 K, x1 = 0.947): 0.342 ± 0.012 kJ/mol

CC1(C)C(=O)[C@]2(C)CC[C@H]1C2 [(-)-fenchone] + CCCO
excess molar enthalpy ([2]; 283.15 K, x1 = 0.049): 0.192 ± 0.007 kJ/mol
excess molar enthalpy ([2]; 283.15 K, x1 = 0.098): 0.366 ± 0.012 kJ/mol
excess molar enthalpy ([2]; 283.15 K, x1 = 0.193): 0.646 ± 0.02 kJ/mol
excess molar enthalpy ([2]; 283.15 K, x1 = 0.292): 0.837 ± 0.026 kJ/mol
excess molar enthalpy ([2]; 283.15 K, x1 = 0.397): 0.971 ± 0.03 kJ/mol
excess molar enthalpy ([2]; 283.15 K, x1 = 0.493): 1.02 ± 0.031 kJ/mol
excess molar enthalpy ([2]; 283.15 K, x1 = 0.592): 1 ± 0.031 kJ/mol
excess molar enthalpy ([2]; 283.15 K, x1 = 0.691): 0.912 ± 0.028 kJ/mol
excess molar enthalpy ([2]; 283.15 K, x1 = 0.805): 0.699 ± 0.022 kJ/mol
excess molar enthalpy ([2]; 283.15 K, x1 = 0.897): 0.408 ± 0.013 kJ/mol
excess molar enthalpy ([2]; 283.15 K, x1 = 0.951): 0.209 ± 0.008 kJ/mol
excess molar enthalpy ([2]; 298.15 K, x1 = 0.049): 0.22 ± 0.008 kJ/mol
excess molar enthalpy ([2]; 298.15 K, x1 = 0.098): 0.419 ± 0.014 kJ/mol
excess molar enthalpy ([2]; 298.15 K, x1 = 0.193): 0.732 ± 0.023 kJ/mol
excess molar enthalpy ([2]; 298.15 K, x1 = 0.292): 0.955 ± 0.03 kJ/mol
excess molar enthalpy ([2]; 298.15 K, x1 = 0.397): 1.12 ± 0.035 kJ/mol
excess molar enthalpy ([2]; 298.15 K, x1 = 0.493): 1.17 ± 0.036 kJ/mol
excess molar enthalpy ([2]; 298.15 K, x1 = 0.592): 1.16 ± 0.036 kJ/mol
excess molar enthalpy ([2]; 298.15 K, x1 = 0.691): 1.05 ± 0.033 kJ/mol
excess molar enthalpy ([2]; 298.15 K, x1 = 0.805): 0.796 ± 0.025 kJ/mol
excess molar enthalpy ([2]; 298.15 K, x1 = 0.897): 0.477 ± 0.015 kJ/mol
excess molar enthalpy ([2]; 298.15 K, x1 = 0.951): 0.24 ± 0.009 kJ/mol
excess molar enthalpy ([2]; 313.15 K, x1 = 0.049): 0.242 ± 0.009 kJ/mol
excess molar enthalpy ([2]; 313.15 K, x1 = 0.098): 0.461 ± 0.015 kJ/mol
excess molar enthalpy ([2]; 313.15 K, x1 = 0.193): 0.799 ± 0.025 kJ/mol
excess molar enthalpy ([2]; 313.15 K, x1 = 0.292): 1.05 ± 0.033 kJ/mol
excess molar enthalpy ([2]; 313.15 K, x1 = 0.397): 1.23 ± 0.038 kJ/mol
excess molar enthalpy ([2]; 313.15 K, x1 = 0.493): 1.29 ± 0.04 kJ/mol
excess molar enthalpy ([2]; 313.15 K, x1 = 0.592): 1.27 ± 0.039 kJ/mol
excess molar enthalpy ([2]; 313.15 K, x1 = 0.691): 1.15 ± 0.036 kJ/mol
excess molar enthalpy ([2]; 313.15 K, x1 = 0.805): 0.861 ± 0.027 kJ/mol
excess molar enthalpy ([2]; 313.15 K, x1 = 0.897): 0.522 ± 0.017 kJ/mol
excess molar enthalpy ([2]; 313.15 K, x1 = 0.951): 0.262 ± 0.01 kJ/mol
excess molar enthalpy ([2]; 328.15 K, x1 = 0.049): 0.256 ± 0.009 kJ/mol
excess molar enthalpy ([2]; 328.15 K, x1 = 0.098): 0.49 ± 0.016 kJ/mol
excess molar enthalpy ([2]; 328.15 K, x1 = 0.193): 0.854 ± 0.027 kJ/mol
excess molar enthalpy ([2]; 328.15 K, x1 = 0.292): 1.13 ± 0.035 kJ/mol
excess molar enthalpy ([2]; 328.15 K, x1 = 0.397): 1.32 ± 0.041 kJ/mol
excess molar enthalpy ([2]; 328.15 K, x1 = 0.493): 1.39 ± 0.043 kJ/mol
excess molar enthalpy ([2]; 328.15 K, x1 = 0.592): 1.36 ± 0.042 kJ/mol
excess molar enthalpy ([2]; 328.15 K, x1 = 0.691): 1.23 ± 0.038 kJ/mol
excess molar enthalpy ([2]; 328.15 K, x1 = 0.805): 0.907 ± 0.028 kJ/mol
excess molar enthalpy ([2]; 328.15 K, x1 = 0.897): 0.548 ± 0.018 kJ/mol
excess molar enthalpy ([2]; 328.15 K, x1 = 0.951): 0.275 ± 0.01 kJ/mol

CCCO [propan-1-ol]
mass density [1]: 799.56 ± 0.14 kg/m3

CC(C)O [propan-2-ol]
mass density [1]: 781.2 ± 0.15 kg/m3
